According to US20100204324A1, “Optically Active N-(Alpha-Mercaptopropionyl)Glycine” (priority 2007, published 2010):

Experiments:
Assay type in all cases: in vivo
[1] = tested on: mice with liver injury induced by acetamidophenol; test: Liver injury in mice induced by acetamidophenol, drugs by intravenous injection: serum biochemical indicators and liver indexes; conditions: for Liver albumin / Liver total protein / GSH: 10% liver homogenate; for Liver albumin / Liver total protein / Liver coefficient / Serum total protein / mice dead after modeling / GSH / MDA: mice, drug 800 mg/kg iv; for Liver coefficient / Serum total protein: acetamidophenol 400 mg/kg ip, 24 hours after modeling; for mice dead after modeling: acetamidophenol model; for GSH / MDA: liver
Description: The animals were randomly divided into the following 5 groups of 10 animals according to weight: solvent control group, model group (acetamidophenol, 400 mg/kg, ml/kg, intraperitoneal injection), tiopronin group (MPG), R-(−)-N-(α-mercaptopropionyl)glycine group, and S-(+)-N-(α-mercaptopropionyl)glycine group. After fasting for 12 h, except the solvent control group and model group were given saline by intravenous injection, the other test groups were intravenously injected drugs, and then intraperitoneally injected 400/mg/kg of acetamidophenol immediately, to induce acute liver cell injury. The animals were fed with food at 6 hours after modeling, and then fasted for 16 hours; and at 24 hours after modeling, blood were sampled by eye ball removal, centrifuged, and collected for serum. ALT, and AST were determined following the method of the kit. 10% of liver homogenate was prepared, to measure GSH. The liver and spleen were taken at the same time, weighted, and calculated for organcoefficient.

[2] = Pharmacokinetic test in the body of a test animal, plasma drug concentration by HPLC-MS (interconversion of enantiomers); conditions: each time point after administration, GITC derivatization
Excerpt: It is found from pharmacokinetic experiment that, conversion of R-(−)-N-(α-mercaptopropionyl)glycine and S-(+)-N-(α-mercaptopropionyl)glycine to each other have not occurred in body. The specific experiment is a pharmacokinetic test in the body of a test animal, including determining the plasma drug concentration with high-performance liquid chromatography-mass spectrometry (HPLC-MS).
The process for treat a plasma sample to formulate an injected solution includes plasma acidification, extraction, and then derivatization, and is as follows: […]
ionization mode: electrospray ionization; selective ion detection; curved desolvation line (CDL); temperature: 200° C.-300° C., with 250° C. being preferred; heating block temperature: 150° C.-250° C., with 200° C. being preferred; CDL voltage: 20V-30V, with 25V being preferred; detection voltage: +1.2 kV-+1.8 kV, with +1.50 kV being preferred; flow rate of atomizing gas: 1.2 L/min-1.8 L/min, with 1.5 L/min being preferred; flow rate of drying gas: 1.5 L/min-2.5 L/min, with 2.0 L/min being preferred; detected ion: derivative of test drug [M+Na]+(m/z): 575.20; internal standard: derivative of N-isobutanoyl-D-cysteine (NIDC) [M+Na]+(m/z): 603.05; […]

[3] = tested on: rats with liver injury induced by CCl4; test: Protection against liver injury in rats induced by carbon tetrachloride, drugs given intragastrically; conditions: CCl4 model, drug 450 mg/kg ig; for Albumin / Globulin / Total protein: serum; for A/G: serum albumin/globulin
Description: The animals were randomly divided into the following 5 groups of 10 animals according to weight: solvent control group, model group (50% CCl4, 2 ml/kg, intraperitoneal injection), tiopronin group (MPG), R-(−)-N-(α-mercaptopropionyl)glycine group, and S-(+)-N-(α-mercaptopropionyl)glycine group. Except the solvent control group was given olive oil by intraperitoneal injection, the other test groups were intragastrically administrated drugs for 4 days, once daily, intraperitoneally injected CCl4 once on the fifth day to induce acute liver cell injury, treated with drugs 30 min before modeling (except for the model control group), and then administrated drugs once 2 hours after modeling. Then, the animals were fasted for 16 h, blood was sampled from retrobulbar venous plexus 24 hours after injecting CCl4, centrifuged, and collected for serum, and ALT, AST, albumin were determined following the method of the kit. The left lobe of liver was taken to prepare 10% of liver homogenate and measure GSH and MDA contents.

[4] = listed as S—H—N-(α-mercaptopropionyl)glycine

| Structure (SMILES) | Liver albumin [1] [mg/mL] | Liver total protein [1] [mg/mL] | Liver coefficient [1] [mg/g] | Serum total protein [1] [mg/mL] | mice dead after modeling [1] | protection against liver injury in mice induced by acetamidophenol ([1]; overall comparison with tiopronin group, 800 mg/kg iv) | presence of the other enantiomer in plasma spectrogram after individual administration (conversion in body) [2] | GSH [1, 4] | MDA [1] [nmol/g wet weight] | MDA [1, 4] | Albumin [3] [mg/mL] | Globulin [3] [mg/mL] | Total protein [3] [mg/mL] | GSH ([1]; listed as tiopronin) | MDA ([1]; listed as tiopronin) | A/G [3] | A/G ([3]; listed as tiopronin) | Albumin ([3]; listed as tiopronin) | Globulin ([3]; listed as tiopronin) | Total protein ([3]; listed as tiopronin) |
| --- | --- | --- | --- | --- | --- | --- | --- | --- | --- | --- | --- | --- | --- | --- | --- | --- | --- | --- | --- | --- |
| C[C@@H](S)C(=O)NCC(=O)O [R-(−)-N-(α-mercaptopropionyl)glycine] | 9.2 ± 1.3 | 16.5 ± 1.7 | 5.816 ± 0.613 | 43.8 ± 7.4 | no death | superior to that in tiopronin group | not obviously detected |  |  |  |  |  |  |  |  |  |  |  |  |  |
| CC(S)C(=O)NCC(=O)O (stereo not drawn) [S-(+)-N-(α-mercaptopropionyl)glycine] | 9.1 ± 2.0 | 16.2 ± 2.9 | 6.201 ± 0.567 | 43.7 ± 5.7 |  |  | not obviously detected | no such effects | 440.0 ± 134.6 | no such effects | 27.5 ± 1.44 | 37.2 ± 5.06 | 64.7 ± 6.40 |  |  |  |  |  |  |  |
| CC(S)C(=O)NCC(=O)O (stereo not drawn) [Tiopronin, N-(α-mercaptopropionyl)glycine] | 9.6 ± 1.1 | 15.7 ± 1.4 | 5.804 ± 0.598 |  | 4 |  |  |  | 362.4 ± 98.6 |  | 26.8 ± 1.98 | 32.9 ± 4.79 | 59.8 ± 6.26 | no such effects | no such effects | 0.825 ± 0.101 | no obvious effect | no obvious effect | no obvious effect | no obvious effect |
